# Assay results from patent US20220356174A1, “PYRIDIN-2-ONE COMPOUNDS USEFUL AS SMARCA2 ANTAGONISTS” (Epizyme, Inc., priority 2018, published 2022).
# Where two headings read alike, the source gives them in different places.
# How the values were obtained:
# [1] = target: T1, FL-SMARCA2 (full-length human SMARCA2 isoform 1) (Homo sapiens, UniProt P51531); assay: SMARCA2 ATPase activity assay (ADP-Glo, chicken mononucleosome substrate); format: biochemical; settings: ATP 250 uM
# T1 construct: FLAG tag (YKDDDDK) (C); made in house; host or cells: Sf21 insect cells (baculovirus, pFastBacI)
# T1 sequence (P51531 with tags, fused parts or gaps): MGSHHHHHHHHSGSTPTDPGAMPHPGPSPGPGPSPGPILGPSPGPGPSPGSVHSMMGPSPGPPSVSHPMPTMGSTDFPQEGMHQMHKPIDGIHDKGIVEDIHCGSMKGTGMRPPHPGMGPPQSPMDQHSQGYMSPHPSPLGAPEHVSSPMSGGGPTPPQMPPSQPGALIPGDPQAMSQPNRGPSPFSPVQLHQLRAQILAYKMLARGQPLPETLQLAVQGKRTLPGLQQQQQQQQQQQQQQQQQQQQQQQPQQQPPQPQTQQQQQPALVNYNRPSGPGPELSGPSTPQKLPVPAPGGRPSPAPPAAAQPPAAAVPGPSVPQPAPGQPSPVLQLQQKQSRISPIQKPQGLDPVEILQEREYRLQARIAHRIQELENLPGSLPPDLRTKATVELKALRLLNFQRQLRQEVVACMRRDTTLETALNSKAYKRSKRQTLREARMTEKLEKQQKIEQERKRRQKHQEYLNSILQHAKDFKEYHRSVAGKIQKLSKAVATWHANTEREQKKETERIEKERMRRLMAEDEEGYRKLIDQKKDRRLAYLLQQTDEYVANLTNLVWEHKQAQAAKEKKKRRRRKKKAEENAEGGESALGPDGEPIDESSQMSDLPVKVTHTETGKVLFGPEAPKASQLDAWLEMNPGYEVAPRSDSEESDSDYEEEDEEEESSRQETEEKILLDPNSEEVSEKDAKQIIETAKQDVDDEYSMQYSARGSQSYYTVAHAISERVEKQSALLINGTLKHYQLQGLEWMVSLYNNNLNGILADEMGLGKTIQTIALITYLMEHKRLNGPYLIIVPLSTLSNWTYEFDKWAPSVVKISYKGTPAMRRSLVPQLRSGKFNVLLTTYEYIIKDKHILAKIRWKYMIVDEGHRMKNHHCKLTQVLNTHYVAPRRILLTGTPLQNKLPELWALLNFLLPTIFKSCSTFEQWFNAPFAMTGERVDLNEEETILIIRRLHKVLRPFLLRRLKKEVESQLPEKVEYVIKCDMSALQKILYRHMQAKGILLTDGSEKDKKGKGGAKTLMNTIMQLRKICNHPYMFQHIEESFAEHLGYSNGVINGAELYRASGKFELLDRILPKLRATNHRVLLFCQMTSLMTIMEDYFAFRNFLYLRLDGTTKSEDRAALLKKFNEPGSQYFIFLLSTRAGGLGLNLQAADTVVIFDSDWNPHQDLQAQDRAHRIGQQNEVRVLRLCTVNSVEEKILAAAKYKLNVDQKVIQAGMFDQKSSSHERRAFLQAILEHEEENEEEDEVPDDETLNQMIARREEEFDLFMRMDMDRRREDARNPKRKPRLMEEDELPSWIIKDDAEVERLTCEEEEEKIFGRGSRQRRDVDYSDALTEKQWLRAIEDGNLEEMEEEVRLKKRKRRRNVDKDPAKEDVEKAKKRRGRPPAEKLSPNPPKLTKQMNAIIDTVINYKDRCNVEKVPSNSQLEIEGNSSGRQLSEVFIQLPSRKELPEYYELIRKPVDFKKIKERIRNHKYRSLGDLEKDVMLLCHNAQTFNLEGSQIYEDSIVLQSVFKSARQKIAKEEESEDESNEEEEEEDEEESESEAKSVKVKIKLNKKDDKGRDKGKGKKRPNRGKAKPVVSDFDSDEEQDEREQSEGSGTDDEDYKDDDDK
# A549 cells = assay: High-throughput proliferation (HTP) assay for A549 cells (CellTiter-Glo, 7 days); format: cell-based; settings: Homo sapiens, 168 h, read-out: A549 SMARCA2 IC50
# Protocol: Thawing vials: A549 cells (ATCC #CCL-185™) were thawed from a cryovial containing approximately 1.6×10^6 cells frozen in 70% F12K medium, 20% HI-FBS and 10% DMSO. Cells were thawed by submerging the bottom half of the vial in a 37° C. water bath and gently flicked until almost thawed. The cells were transferred into a 15 mL conical tube containing 9 mL of F12K medium+10% HI-FBS and then centrifuged at 200×g for 4 min before drawing off the media without disturbing the cell pellet in order to remove the DMSO. The cells were resuspended again in 15 mL of F12K fresh complete media+10% HI-FBS and grown up in a T75 flask at 37° C. with 5% CO2 Incubator. Viability was measured to obtain baseline.
# Frozen stock vials preparation: The cell culture was transferred to a 50 mL conical tube, spun down to remove medium, and resuspended at 1-2×10^6 cells/mL in complete medium containing 10% DMSO. The culture was then stored for 24 hours at −80 degree C., (with the initial rate of freezing is −1 degree C. per minute in a freezing container), then transferred and stored in liquid nitrogen.
# (§1) Routine subculture: Sub-confluent cultures (70-80%) were split every 4 days, seeding out at 1-2×10^6 cells/75 cm^2.
# Day 0: Assay ready plates were prepared by dispensing 50 nL of compound or DMSO in the appropriate wells of 384-well white CulturPlates using Echo550. Using the Multiflo, A549 cells were plated at 50 μL/well in F12K complete media+10% HI-FBS+1% pen/strep at cell density determined [1,250 cells/mL (62.5 cells/well)] from growth curve.
# Treated cells were incubated at 37° C., 5% CO2, relative humidity >90% for 7 days. CellTiter-Glo (CTG) ATP detection reagent was prepared according to manufacturer's specifications. Cell assay plates were removed from the incubator and brought to room temperature (RT). Using the MultiDrop liquid handler, 30 μL of CTG were added per well. Plates were placed on the multidrop dispenser shake for 5 seconds at room temperature (RT). Plates were incubated for 30 minutes in the dark at RT before measuring luminescence using the Envison2104.
# Data analysis: Using the DMSO control wells as the 0% inhibition (high signal) control and the 10 μM Doxorubicin control wells as the 100% inhibition (low signal) control, percent inhibition EC50s (inflection point) and IC50 s were calculated for the compound dose responses.
# FL-SMARCA4 = FL-SMARCA4 (Homo sapiens, UniProt P51532); assay: SMARCA4 ATPase activity assay (ADP-Glo, chicken mononucleosome substrate); settings: ATP 250 uM
# Chain of FL-SMARCA4 (P51532 whole entry): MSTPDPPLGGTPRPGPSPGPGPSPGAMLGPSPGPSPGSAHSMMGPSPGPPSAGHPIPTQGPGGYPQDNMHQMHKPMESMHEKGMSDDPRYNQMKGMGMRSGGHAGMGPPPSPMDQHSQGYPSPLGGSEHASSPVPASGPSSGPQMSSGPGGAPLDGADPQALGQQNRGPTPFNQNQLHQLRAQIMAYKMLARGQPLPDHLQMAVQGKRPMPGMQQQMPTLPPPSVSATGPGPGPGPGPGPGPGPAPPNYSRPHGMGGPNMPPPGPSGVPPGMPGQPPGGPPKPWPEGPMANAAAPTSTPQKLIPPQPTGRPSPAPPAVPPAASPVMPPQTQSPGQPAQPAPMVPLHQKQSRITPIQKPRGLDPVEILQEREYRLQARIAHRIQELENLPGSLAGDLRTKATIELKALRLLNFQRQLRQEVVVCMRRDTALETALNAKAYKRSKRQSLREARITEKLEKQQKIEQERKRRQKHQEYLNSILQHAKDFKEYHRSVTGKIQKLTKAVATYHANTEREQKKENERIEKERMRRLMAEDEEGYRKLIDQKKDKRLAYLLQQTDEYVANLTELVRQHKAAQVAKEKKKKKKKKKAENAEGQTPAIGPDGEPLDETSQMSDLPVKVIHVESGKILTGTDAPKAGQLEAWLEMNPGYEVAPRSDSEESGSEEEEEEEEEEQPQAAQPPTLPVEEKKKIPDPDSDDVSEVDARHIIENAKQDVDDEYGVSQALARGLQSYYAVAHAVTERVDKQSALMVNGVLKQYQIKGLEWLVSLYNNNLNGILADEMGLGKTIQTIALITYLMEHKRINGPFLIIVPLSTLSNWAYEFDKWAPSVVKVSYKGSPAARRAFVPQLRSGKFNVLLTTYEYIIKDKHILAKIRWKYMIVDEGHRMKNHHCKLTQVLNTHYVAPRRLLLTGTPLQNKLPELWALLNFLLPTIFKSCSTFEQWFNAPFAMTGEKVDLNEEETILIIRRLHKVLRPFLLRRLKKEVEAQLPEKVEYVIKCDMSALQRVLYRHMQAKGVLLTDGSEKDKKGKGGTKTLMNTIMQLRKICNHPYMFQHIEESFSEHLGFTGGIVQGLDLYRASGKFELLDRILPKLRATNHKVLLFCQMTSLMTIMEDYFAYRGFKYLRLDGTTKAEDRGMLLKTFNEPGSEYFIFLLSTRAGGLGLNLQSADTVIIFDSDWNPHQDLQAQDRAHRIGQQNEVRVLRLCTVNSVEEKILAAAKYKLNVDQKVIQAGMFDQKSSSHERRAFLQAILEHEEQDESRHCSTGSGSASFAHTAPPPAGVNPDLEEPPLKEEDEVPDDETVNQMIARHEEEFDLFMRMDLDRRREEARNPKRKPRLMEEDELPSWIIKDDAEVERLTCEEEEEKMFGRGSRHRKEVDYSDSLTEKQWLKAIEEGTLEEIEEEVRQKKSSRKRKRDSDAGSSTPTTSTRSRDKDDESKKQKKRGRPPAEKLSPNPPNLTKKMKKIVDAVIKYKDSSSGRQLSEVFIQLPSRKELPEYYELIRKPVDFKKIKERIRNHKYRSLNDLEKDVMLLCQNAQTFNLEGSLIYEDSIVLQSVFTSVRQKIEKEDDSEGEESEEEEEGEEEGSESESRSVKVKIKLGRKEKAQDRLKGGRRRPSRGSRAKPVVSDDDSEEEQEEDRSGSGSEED
# H358 cells = assay: High-throughput proliferation (HTP) assay for H358 cells (CellTiter-Glo, 7 days); format: cell-based; settings: Homo sapiens, NCI-H358, 168 h, read-out: H358 SMARCA2 IC50
# Protocol: Thawing vials: H358 cells (ATCC #CRL-5807™) were thawed from a cryovial containing approximately 1.6×10^6 cells frozen in 70% RPMI 1640 medium, 20% HI-FBS and 10% DMSO. Cells were thawed by submerging the bottom half of the vial in a 37° C. water bath and gently flicked until almost thawed. The cells were removed and transferred into a 15 mL conical tube containing 9 mL RPMI 1640 medium+10% HI-FBS and then centrifuged 200×g for 4 min before drawing off the media without disturbing the cell pellet to remove the DMSO. The cells were resuspended again in 15 mL of RPMI 1640 fresh complete media+10% HI-FBS and grown up in a T75 flask at 37° C. with 5% CO2 Incubator. Viability was measured to obtain baseline.
# Preparing frozen stock vials: Cell density was counted in a stock flask. The culture was transferred to a 50 mL conical tube and spun down to remove medium, and then resuspend at 1-2×10^6 cells/mL in complete medium containing 10% DMSO and transferred to a 1 mL per vial.
# as §1
# Day 0: Assay ready plates were prepared by dispensing 50 nL of compound stock or DMSO in the appropriate wells of 384-well white CulturPlates using Echo550. Using the Multiflo, H358 cells at 50 μL/well were plated in RPMI 1640 complete media+10% HI-FBS+1% pen/strep at cell density determined [20,000 cells/mL (1,000 cells/well)] from growth curve. Treated cells were inclubated at 37° C., 5% CO2, relative humidity >90% for 7 days. CellTiter-Glo (CTG) ATP detection reagent was prepared according to manufacturer's specifications. Cell assay plates were removed from incubator and bring to room temperature (RT).
# Using the MultiDrop liquid handler, 30 μL of CTG were added per well. Plates were placed on the multidrop dispenser shake for 5 seconds at RT. Plates were incubated for 30 minutes in the dark at RT before measuring luminescence using the Envison2104.
# Data analysis: Using the DMSO control wells as the 0% inhibition (high signal) control and the 10 uM Doxorubicin control wells as the 100% inhibition (low signal) control, percent inhibition EC50s (inflection point) and IC50s were calculated for the compound dose responses.
# [2] = Table 3.1, ATPase assay, enzyme 5 nM, chicken mononucleosome 10 nM, 30 min preincubation
# [3] = FL-SMARCA4 IC50, Table 3.2, ATPase assay, enzyme 5 nM, chicken mononucleosome 10 nM, 30 min preincubation
# [4] = Table 3c.1, ATPase assay, enzyme 5 nM, chicken mononucleosome 10 nM, 30 min preincubation
# [5] = FL-SMARCA4 IC>50, Table 3c.2, ATPase assay, enzyme 5 nM, chicken mononucleosome 10 nM, 30 min preincubation
SMILES,"IC50 [1, 2] [µM]",IC50 (A549 cells) [µM],IC50 (FL-SMARCA4; [3]) [µM],also measured
N#Cc1[nH]c(C(=O)Nc2ccc(=O)n(CC(F)(F)F)c2)cc1Cl [Compound 234],0.478,≥ 20,1.74,
O=C(Nc1cc(F)c(=O)n(CC(F)F)c1)c1cc(F)c(C(F)(F)F)s1 [Compound 25c],,0.614,,"IC50 [1, 4]: 0.0142 µM; IC50 (H358 cells): > 10 µM"
CCn1cc(NC(=O)c2cc(Cl)c(C#N)[nH]2)cc(F)c1=O [Compound 235],0.0591,≥ 20,0.272,
CCn1cc(NC(=O)c2cc(Cl)c(C#N)[nH]2)cc(Cl)c1=O [Compound 236],0.125,≥ 20,0.555,
N#Cc1[nH]c(C(=O)Nc2ccc(=O)n(CCF)c2)cc1Cl [Compound 231],0.142,≥ 20,0.544,
O=C(Nc1cc(Cl)c(=O)n(CC(F)F)c1)c1cc(Cl)c(C(F)(F)F)s1 [Compound 79d],,3.65,,"IC50 ([1]; Table 3d.1, ATPase assay, enzyme 5 nM, chicken mononucleosome 10 nM, 30 min preincubation, read-out: FL-SMARCA2 IC>50): 0.0432 µM; IC50 (H358 cells): > 10 µM"
COc1ncc(C(=O)Nc2cc(F)c(=O)n(CCF)c2)s1 [Compound 223],18.4,≥ 20,> 50,
N#Cc1[nH]c(C(=O)Nc2cc(C#N)c(=O)n(CCF)c2)cc1Cl [Compound 238],0.232,7.27,0.879,
N#Cc1cc(C(=O)Nc2ccc(=O)n(CCF)c2)sc1C#N [Compound 182],0.0355,≥ 20,0.127,
N#Cc1[nH]c(C(=O)Nc2cc(Cl)c(=O)n(CC(F)(F)F)c2)cc1Cl [Compound 237],0.201,≥ 20,0.863,
N#Cc1[nH]c(C(=O)Nc2cc(F)c(=O)n(CCF)c2)cc1Cl [Compound 232],0.0249,15.5,0.111,
Cn1c(C(=O)Nc2cc(F)c(=O)n(CCF)c2)cnc1C#N [Compound 220],0.488,≥ 20,1.93,
N#Cc1ncc(C(=O)Nc2cc(C#N)c(=O)n(CCF)c2)s1 [Compound 203],0.0407,≥ 20,0.118,
Cc1ncc(C(=O)Nc2cc(F)c(=O)n(CCF)c2)s1 [Compound 222],1.31,≥ 20,10.2,
COC1(C(=O)Nc2ccc(=O)n(Cc3ccccc3Cl)c2)CCNCC1 [Compound 4a],,,,"IC50 ([1]; Table 3a.1, SMARCA2 5 nM, mononucleosome 10 nM): > 50 µM; IC50 (FL-SMARCA4; FL-SMARCA4 IC50, Table 3a.2, SMARCA4 5 nM, mononucleosome 10 nM): > 50 µM"
N#Cc1cc(C(=O)Nc2cc(F)c(=O)n(CC(F)(F)F)c2)sc1Cl [Compound 207],0.0729,0.892,0.342,
CCn1nc(C(=O)Nc2ccc(=O)n(CC)c2)cc1C [Compound 32],> 50,,> 50,
O=C(Nc1cc(F)c(=O)n(CC(F)F)c1)[C@H]1CCCN1 [Compound 16c],,,,"IC50 [1, 4]: > 50 µM; IC50 (FL-SMARCA4; [5]): > 50 µM"
CCn1cc(NC(=O)c2ccc(Cl)c(Cl)c2)ccc1=O [Compound 4b],,,,"IC50 ([1]; Table 3b.1, SMARCA2 5 nM, mononucleosome 10 nM): 42 µM; IC50 (FL-SMARCA4; FL-SMARCA4 IC50, Table 3b.2, SMARCA4 5 nM, mononucleosome 10 nM): > 50 µM"
CCn1cc(NC(=O)c2ccc(Br)n2C)ccc1=O [Compound 19],> 50,,> 50,
N#Cc1cc(NC(=O)c2cc(Cl)c(Cl)[nH]2)cn(CC(F)(F)F)c1=O [Compound 211],2.31,,27.5,
O=C(Nc1cc(F)c(=O)n(CC(F)F)c1)c1cc(C#Cc2ccncc2)n[nH]1 [Compound 112c],,,,"IC50 [1, 4]: > 50 µM; IC50 (FL-SMARCA4; [5]): > 50 µM"
CCn1cc(NC(=O)c2cc(Cl)n(C)c2)ccc1=O [Compound 70],16.7,,> 50,
CCn1cc(NC(=O)c2cc(Cl)[nH]c2Cl)ccc1=O [Compound 97],> 50,,> 50,

# The next lines start with results.
"IC50 [1, 2] [µM]",IC50 (A549 cells) [µM],IC50 (FL-SMARCA4; [3]) [µM],SMILES,also measured
1.24,> 10,5.87,O=C(Nc1cc(C(F)(F)F)c(=O)n(CC(F)F)c1)c1cc(F)c(Cl)s1 [Compound 336],
> 50,> 10,> 50,CS(=O)(=O)c1csc(C(=O)Nc2cc(F)c(=O)n(CCF)c2)c1 [Compound 302],
0.0337,0.769,0.104,O=C(Nc1cc(Cl)c(=O)n(CC(F)F)c1)c1cc(F)c(Cl)s1 [Compound 337],
0.626,≥ 20,2.39,N#Cc1cc(C(=O)Nc2cc(Cl)c(=O)n(CCF)c2)[nH]c1Cl [Compound 240],
0.943,> 10,2.32,CC(O)C#Cc1cc(C(=O)Nc2cc(F)c(=O)n(CC(F)F)c2)sc1Cl (centres unmarked) [Compound 339],
,> 10,,Cn1cncc1C#Cc1cc(C(=O)Nc2cc(F)c(=O)n(CC(F)F)c2)sc1Cl [Compound 330],IC50 (H358 cells): 8.74 µM
0.0389,17.4,0.168,N#Cc1[nH]c(C(=O)Nc2cc(F)c(=O)n(CC(F)(F)F)c2)cc1Cl [Compound 242],
0.695,> 10,4.89,CC(CF)n1cc(NC(=O)c2cc(Cl)c(C(F)(F)F)s2)cc(F)c1=O (centres unmarked) [Compound 340],
0.131,5.46,0.623,O=C(Nc1cc(F)c(=O)n(CCF)c1)c1cc(Cl)c(F)s1 [Compound 251],
> 50,,> 50,CNC(=O)c1cc(C(=O)Nc2cc(F)c(=O)n(CCF)c2)sc1C(F)(F)F [Compound 305],
5.19,,24.9,O=C(Nc1cc(F)c(=O)n(CCF)c1)c1cnc(OC(F)F)s1 [Compound 269],
0.089,3.21,0.363,N#Cc1cc(NC(=O)c2cc(F)c(Cl)s2)cn(CC(F)F)c1=O [Compound 338],
> 50,,> 50,O=C(Nc1cc(F)c(=O)n(CCF)c1)c1ccc(-c2ccn[nH]2)s1 [Compound 312],
0.381,≥ 20,2.1,O=C(Nc1cc(F)c(=O)n(CCF)c1)c1cnc([N+](=O)[O-])s1 [Compound 275],
